Columns and labels:
[1] = tested on: Haloperidol-induced catalepsy; test: Haloperidol-induced catalepsy test (descent test), model for parkinsonism; assay type: in vivo, Sprague-Dawley rats; settings: for descent latency: rats after haloperidol 0.5 mg/kg, compound 5 mg/kg, FIG. 1, vehicle control about 130 seconds
Protocol: (§1) Next, rats (Sprague-Dawley rats; Charles-River, Sulzfeld, Germany) were established as the animal model. The rats were kept in constant, reproducible conditions. Sprague-Dawley rats weighing about 220 to 300 g were used in the experiment. The rats were kept in groups. A light cycle of 12:12 hours was maintained (light switched on from 07:00 to 19:00 hours). For two weeks before the experiments, all the rats were kept in the same room. Water was made available ad libitum, standard animal feed was supplied once daily in an amount of 12 g per animal. All experiments were carried out between 09:00 and 17:00 hours and complied with international ethical standards and the German animal protection law. It was approved by the Animal Protection Commission, Tübingen Administrative Board, ZP 5/01.
Haloperidol-induced catalepsy is used here as a model for parkinsonism. Haloperidol is a dopamine receptor-blocking drug. The catalepsy induced in this way comprises akinesia and rigor. The haloperidol model can be treated with all known clinically effective antiparkinsonism drugs, as described above.
Dopamine hypofunction and the consequent parkinsonian symptoms were generated as follows.
Control Group: • Haloperidol (Haldol, Janssen®, Germany) was diluted with phosphate buffered saline (PBS; Sigma, Deisenhofen, Germany) to a concentration of 0.5 mg per ml. Twelve rats were each given an intraperitoneal (i.p.) injection of this solution with an absolute amount of haloperidol of 0.5 mg per kilogram of body weight and an injection with PBS.
Test Group: • Another twelve rats were treated identically, but instead of the PBS injection were given a fluorine-substituted amphetamine derivative 1-(3,4-difluorophenyl)-2-(N-ethylamino)propane (Formula III) dissolved in PBS.
The results of the descent tests are illustrated in FIG. 1. […] The descent latency of rats treated with MDMA (5 mg/kg) was much less, at about 30 seconds, but for the rats treated with 1-(3,4-difluorophenyl)-2-(N-ethylamino)propane (fMDE, Formula (III), 5 mg/kg) it was even lower.

[2] = tested on: L-DOPA-induced dyskinesias; test: L-DOPA-induced dyskinesia (AIM) in 6-hydroxydopamine hemiparkinsonian rats; assay type: in vivo
Protocol: as §1
24 rats were put in deep narcosis. One hemisphere of the rats was treated in each case with the neurotoxin 6-hydroxydopamine, which destroyed dopaminergic neurons in this hemisphere. […] Then the animals were treated intraperitoneally with an antiparkinsonian drug twice daily for 25 days. This comprised L-DOPA-methyl ester in an amount of 10 mg per kg of body weight with benserazide in an amount of 7.5 mg per kg of body weight (Sigma, Deisenhofen, Germany). Under this treatment the rats developed dyskinesias of the contralateral forepaws.
Control Group: • Continuing this treatment, 12 of the 24 rats were treated additionally with PBS.
Test Group: • The other twelve rats were treated additionally with a fluorinated amphetamine derivative 1-(3,4-difluorophenyl)-2-(N-ethylamino)propane (Formula III).
The results for the treatment are illustrated in FIG. 2. The dyskinesia was quantified (AIM=abnormal involuntary movements) in the control group on five successive days. […] For comparison, the dyskinesia quantification of the test group, i.e., the animals additionally treated with 1-(3,4-difluorophenyl)-2-(N-ethylamino)propane (Formula (III), fMDE, 5 mg/kg), was observed. The measurements were in each case recorded 60 minutes after the animals were treated. […]

Row | Structure (SMILES) | akinesia and rigor in the catalepsy test, test group versus control group ([1]; haloperidol 0.5 mg/kg i.p., compound dissolved in PBS, versus haloperidol + PBS) | descent latency [1] | onset of the antidyskinetic effect ([2]; 5 mg/kg, administration on successive days) | number of AIMs (abnormal involuntary movements) per 4 min versus vehicle control ([2]; 5 mg/kg, recorded 60 minutes after treatment, five successive days, FIG. 2) | expression of the dyskinesias, test group versus control group ([2]; in addition to L-DOPA-methyl ester 10 mg/kg + benserazide 7.5 mg/kg)
1 | CCNC(C)Cc1ccc(F)c(F)c1 (stereo not drawn) [Formula III, 1-(3,4-difluorophenyl)-2-(N-ethylamino)propane] | significantly less pronounced | even lower | already seen on the first day | almost halved | significantly reduced
2 | CNC(C)Cc1ccc2c(c1)OCO2 (stereo not drawn) [MDMA, 3,4-methylene dioxymethamphetamine, reference compound] |  | about 30 seconds |  |  | 
